These results are taken from patent publication US20240391900A1, “RIP1 KINASE INHIBITOR AND USE THEREOF” (SIRONAX (BEIJING) CO., LTD., priority 2021, published 2024).

One series relates to human U937 cells. Conditions: read-out: IC50, blocking programmed necrosis; cited from earlier work.
The next series has as its system mouse L929 cells. Conditions: read-out: IC50, blocking programmed necrosis; cited from earlier work.
A further series has as its system TNF-induced shock model. Conditions: mice; cited from earlier work.
Series [1] can be described thus: Rapid brain distribution assay (LC-MS/MS, brain tissue/plasma ratio). In kind it is in vivo. The note with it: mouse, ip, CD1 mice, intraperitoneal, grouped compounds, brain tissue and plasma taken one hour after administration, read-out: B/P. As to the method: The contents in plasma and tissue samples were measured by LC-MS/MS to obtain the ratio of the concentration in the brain tissue sample to that in the plasma sample, and compounds with blood-brain penetration could be quickly screened.
• 3.1. A group of compounds (usually 3-4 compounds, the molecular weight difference between each other was greater than 5), weighing 1-2 mg of each compound, were added into the same 4 mL weighing bottle. • 3.2. A mixed solvent of 10% DMSO+20% polyethylene glycol-15-hydroxystearate+70% H2O was used to prepare each group to a volume of 1.5 mL-2 mL. • 3.3. The mixture was ultrasonically vortexed until a homogeneous solution was obtained for intraperitioneal administration.
• 4.1. Three CD1 mice were prepared for each group and weighed. • 4.2. The administration volume was 10 mL/kg, and the mice were administered intraperitoneally. • 4.3. Timing was started after administration, and plasma samples and brain tissue samples were taken one hour later. • 4.4. The brain tissue sample was weighed, and then 4 fold volume of physiological saline was added. The resulting mixture was homogenized, and frozen at −20° C. until analysis.
• 5.1. The exact molecular weight of a compound was found from the compound information table. • 5.2. The corresponding parent ions and fragment ions were found, and the mass spectrometry condition and the liquid phase (chromatography) method were optimized to find the appropriate condition and method.
• 6.1. Plasma sample (5-fold dilution): 10 μL of the plasma sample was taken, and 40 μL of the blank plasma sample and 50 μL of the corresponding blank tissue sample were added. • 6.2 Tissue sample processing: 50 μL of the tissue sample (brain, kidney, liver and the like) was taken, and 50 μL of the blank plasma sample was added. • 6.3. The above tissue sample and the diluted plasma sample were taken, and 500 μL of the internal standard solution was added to precipitate the protein. The resulting mixture was vortexed for 2 minutes, stored by freezing at −20° C. for 1 hour and centrifuged at 3800 rpm for 15 minutes at 4° C. The supernatant was taken, 5-fold diluted with 50% MeOH, and then vortexed for 2 minutes, ready for measurement.
The sample was detected by using an appropriate LC-MS/MS method.
Distribution ratio of tissue/plasma=(peak area of compound in tissue/peak area of internal standard)/(peak area of compound in plasma/peak area of internal standard)

For series [2], the system named is HT-29 human colon cancer cells. Nature of the series: In vitro biological activity assay: inhibition of TNFα/SmacM/Z_VAD FMK-induced programmed necrosis, CellTiter-Glo viability. The note with it: HT-29 cells, necrosis induced with TNF-α 100 ng/mL, SmacM 100 nM, Z_VAD-FMK 10 μM, overnight, cell viability by chemiluminescence. In kind it is cell-based. On the procedure:
In order to verify the inhibitory effect of the compounds of the present disclosure on programmed necrosis at the cellular level, a type of cells closely related to the RIP1 pathway, namely HT-29 human colon cancer cells, were selected. The used activation mode is a combination of tumor necrosis factor (TNFα), cysteine aspartate activator mimic (SmacM) and pan-caspase inhibitor Z_VAD FMK, and the cell viability was calculated by detecting chemiluminescence values, thus obtaining the biological activity of the compound inhibiting the programmed necrosis of cells.
Cell line: HT-29 (ATCC® HTB-38™)
• 2.1. The Growth Status of HT-29 Cells was Regularly Checked to Ensure their Normal Growth. • 2.2. McCOY's 5A culture medium containing 10% FBS was preheated in a 37° C. water bath for 30 minutes. When the culture medium was ready for use, the cell passage and inoculation was performed in a Class II safety cabinet with aseptic technique. • 2.3. In a T75 culture flask, when the growth density of cells reached the abundance of approximately 80%, the culture medium was aspirated and cells were washed twice with pre-warmed PBS. • 2.4. 2-3 mL of trypsin (Gibco, catalog number 25200-056) was added and the T75 culture flask was transferred to a 37° C. incubator. • 2.5. After 3-5 minutes, the side of the culture flask was tapped and examined under a microscope for detachment of the cells to the flask. If necessary, the cells were placed back into the incubator to wait for another 5-10 minutes until 85% of the cells were detached from each other. • 2.6. 6-9 mL of complete cell culture medium was quickly added to terminate the trypsin reaction, and then the cells were transferred to a sterile 15 mL centrifuge tube. The cells were pelleted by centrifugation at 300 g for 5-7 minutes in a centrifuge, and then the supernatant was decanted. • 2.7. The cells were resuspended in 10 mL of fresh cell culture medium and the cells were counted by using a hemocytometer. • 2.8. 3,000 cells contained in 100 μL were inoculated into each well of a sterile 96-well cell culture plate (Corning 3903) and cultured overnight at 37° C. under 5% CO2.
• 3.1. All batches of compounds were dissolved in dimethyl sulfoxide (DMSO) to prepare a 20 mM stock. • 3.2. 3 μL of 20 mM stock of each compound was added to 27 μL of DMSO and mixed thoroughly, and then diluted at a dilution ratio of […] (20 μL compound+40 μL DMSO) until the 10-12 points ended. After the compounds were diluted, they were set aside for use. • 3.3. The cell culture plate was taken out from the incubator, washed once with PBS, and replaced with a fresh culture medium free of serum. A mixture of TNF-α (100 ng/mL), SMAC mimic (SmacM, 100 nM) and Z_VAD-FMK (10 μM) was added to induce the programmed necrosis in HT-29 cells. • 3.4. The compound dilution plate was prepared, 0.5 μL of the diluted compound was added to the corresponding 96-well plate, and mixed gently. Two duplicate wells were prepared for each compound. • 3.5. The treated 96-well plate to which the compounds had been added was placed back into the 37° C. incubator containing 5% CO2 and incubated overnight.
The luminescence cell viability detection kit was used to calculate the activity of the compound by measuring the ATP content in viable cells. • 4.1. The CellTiter-Glo® buffer and dry powdered substrate were equilibrated to room temperature before use. • 4.2. The CellTiter-Glo® substrate was resuspended with Cell Titer-Glo® buffer, then homogeneously mixed by gently vortexing. • 4.3. The cell culture plate was taken out and equilibrated at room temperature for 10 minutes (usually not suitable if more than 30 minutes). • 4.4. 20 μL of enzyme/substrate mixture was added into the 96-well assay plate with a multi-channel pipettor. • 4.5. The 96-well assay plate was placed on a shaker and the content was mixed for 2-3 minutes to promote the cell lysis. • 4.6. […]
For orientation: ATP-based viability assays read luminescence as a measure of living cells.

The conditions of series [3]: in vivo; cited from earlier work.

Regarding `CC(C)(C)C(=O)N1N=CC[C@H]1c1ccccc1` [GSK′963], the values for the IC50 with human U937 cells and in the series with mouse L929 cells were 4 nM and 1 nM, respectively. Also, the effect on hypothermia entry with TNF-induced shock model is reported as “effectively inhibit hypothermia”.
In the case of `C(#Cc1cnc2ccccn12)c1cccc(-n2cc3c(n2)C(c2ccccc2)CC3)c1` (stereo not drawn) [Compound 15, 3-((3-(6-phenyl-5,6-dihydrocyclopenta[c]pyrazol-2 (4H)-yl)phenyl)ethynyl)imidazo[1,2-a]pyridine], in series [1], the Kp at 1 h was found to be 0.406. In addition, the EC50 in series [2] is no more than 100 nM.
Consider `C(#Cc1cnc2cccnn12)c1ccnc(-n2cc3c(n2)C(c2ccccc2)CC3)n1` (stereo not drawn) [Compound 7, 3-((2-(6-phenyl-5,6-dihydrocyclopenta[c]pyrazol-2 (4H)-yl)pyrimidine-4-yl)ethynyl)imidazo[1,2-b]pyridazine], for which the Kp at 1 h in series [1] worked out at 0.12. Besides, the EC50 in series [2] fell in the range of 100 to 1000 nM.
Taken in the same sequence, the figures for `Cn1c(-n2nc3c(n2)C(c2cccnc2)CC3)cc(C#Cc2cnc(N)nc2)cc1=O` (stereo not drawn) [Compound 62] were 0.388 and no more than 100 nM.
On to `CN1C(=O)[C@@H](NC(=O)c2nnc(Cc3ccccc3)[nH]2)COc2ccccc21` [GSK2982772], for which the brain tissue distribution result in series [3] is “low brain tissue distribution”.
As for `Nc1ncc(C#Cc2cncc(-n3nc4c(n3)C(c3ccccc3)CC4)c2)cn1` (stereo not drawn) [Compound 54, 5-((5-(4-phenyl-5,6-dihydrocyclopenta[d][1,2,3]triazol-2 (4H)-yl)pyridine-3-yl)ethynyl)pyrimidin-2-amine], the Kp at 1 h in series [1] is 1.44. In series [2], the EC50 was no more than 100 nM.
For `COc1ccc(C#Cc2cccc(-n3cc4c(n3)C(c3ccccc3)CC4)c2)cn1` (stereo not drawn) [Compound 33, 2-(3-((6-methoxypyridin-3-yl)ethynyl)phenyl)-6-phenyl-2,4,5,6-tetrahydrocyclopenta[c]pyrazole], in that order: 0.563 and no more than 100 nM.
For `Nc1ncc(C#Cc2cncc(-n3nc4n(c3=O)CCC4c3ccccc3)c2)cn1` (stereo not drawn) [Compound 52, 2-(5-((2-aminopyrimidin-5-yl)ethynyl)pyridin-3-yl)-7-phenyl-2,5,6,7-tetrahydro-3H-pyrrolo[2,1-c][1,2,4]triazole-3-one], in that order: 1.1 and no more than 100 nM.
For `C(#Cc1cnc2cccnn12)c1cncc(-n2cc3c(n2)C(c2ccccc2)CC3)c1` (stereo not drawn) [Compound 6, 3-((5-(6-phenyl-5,6-dihydrocyclopenta[c]pyrazol-2 (4H)-yl)pyridin-3-yl)ethynyl)imidazo[1,2-b]pyridazine], in that order: 1.24 and no more than 100 nM.
For the compound `Cn1c(-n2nc3c(n2)C(C2CCCCC2)CC3)cc(C#Cc2cnc(N)nc2)cc1=O` (stereo not drawn) [Compound 65, 4-((2-aminopyrimidin-5-yl)ethynyl)-6-(4-cyclohexyl-5,6-dihydrocyclopenta[d][1,2,3]triazol-2 (4H)-yl)-1-methylpyridin-2 (1H)-one], the Kp at 1 h in series [1] was found to be 1.12. For the same compound, in series [2], the EC50 was no more than 100 nM.
For `Nc1ccc(C#Cc2cncc(-n3cc4c(n3)C(c3ccccc3)CC4)c2)cn1` (stereo not drawn) [Compound 16, 5-((5-(6-phenyl-5,6-dihydrocyclopenta[c]pyrazol-2 (4H)-yl)pyridin-3-yl)ethynyl)pyridine-2-amine], in that order: 2.24 and no more than 100 nM.
For `Cc1ncc(C#Cc2cccc(-n3cc4c(n3)C(c3ccccc3)CC4)c2)n1C` (stereo not drawn) [Compound 24, 2-(3-((1,2-dimethyl-iH-imidazole-5-yl)ethynyl)phenyl)-6-phenyl-2,4,5,6-tetrahydrocyclopenta[c]pyrazole], in that order: 1.33 and no more than 100 nM.
For `C(#Cc1cncc(-n2cc3c(n2)C(c2ccccc2)CC3)c1)c1ccccc1` (stereo not drawn) [Compound 30, 6-phenyl-2-(5-(phenylethynyl)pyridin-3-yl)-2,4,5,6-tetrahydrocyclopenta[c]pyrazole], in that order: 0.429 and greater than 1000 nM.
With `Cc1ncc(C#Cc2cnc(N)nc2)cc1-n1nc2c(n1)C(c1ccccc1)CC2` (stereo not drawn) [Compound 58, 5-((6-methyl-5-(4-phenyl-5,6-dihydrocyclopenta[d][1,2,3]triazol-2 (4H)-yl)pyridin-3-yl)ethynyl)pyrimidin-2-amine], the Kp at 1 h in series [1] was 2.93. The EC50 in series [2] was no more than 100 nM.
For `Nc1ncc(C#Cc2cncc(-n3nc4c(n3)C(C3CCCCC3)CC4)c2)cn1` (stereo not drawn) [Compound 2, 5-((5-(4-cyclohexyl-5,6-dihydrocyclopenta[d][1,2,3]triazol-2 (4H)-yl)pyridin-3-yl)ethynyl)pyrimidin-2-amine], in that order: 0.62 and no more than 100 nM.
For `Cn1c(-n2nc3c(n2)C(c2ccccc2)CC3)cc(C#Cc2cnc(N)nc2)cc1=O` (stereo not drawn) [Compound 57, 4-((2-aminopyrimidin-5-yl)ethynyl)-1-methyl-6-(4-phenyl-5,6-dihydrocyclopenta[d][1,2,3]triazol-2 (4H)-yl)pyridine-2 (1H)-one], in that order: 2.16 and no more than 100 nM.
Taken in the same sequence, the figures for `Nc1ncc(C#Cc2cncc(-n3nc4c(n3)[C@@H](c3ccccc3)CC4)c2)cn1` [Compound 56, (R)-5-((5-(4-phenyl-5,6-dihydrocyclopenta[d][1,2,3]triazol-2 (4H)-yl)pyridin-3-yl)ethynyl)pyrimidin-2-amine] were 1.2 and greater than 1000 nM.
Turning to `Cc1ncc(C#Cc2cn[nH]c2)cc1-n1nc2c(n1)C(c1ccccc1)CC2` (stereo not drawn) [Compound 66, 2-(5-((1H-pyrazole-4-yl)ethynyl)-2-methylpyridin-3-yl)-4-phenyl-2,4,5,6-tetrahydrocyclopenta[d][1,2,3]triazole], in series [1], the Kp at 1 h was found to be 3.62. Besides, in series [2], the EC50 was no more than 100 nM.

The IC50 is the point on the concentration scale where inhibition reaches its midpoint. As a reminder, the EC50 is the midpoint of the concentration-response curve.
